Test system: Escherichia coli strain ATCC25922
Assay: standard microdilution assay to determine minimum inhibitory concentrations (MICs)
Type: cell-based
Conditions: Escherichia coli, ATCC25922, Escherichia coli strain ATCC25922, microdilution; read-out: E. coli ATCC25922 MIC
Method: Minimum inhibitory concentrations (MICs) are determined by the microdilution method, typically in a final volume of 100 microliters, according to protocols outlined by The Clinical and Laboratory Standards Institute [CLSI; formerly the National Committee for Clinical Laboratory Standards (NCCLS)]. See CLSI: Methods for dilution antimicrobial susceptibility tests for bacteria that grow aerobically; approved standard-fifth edition. Wayne, Pa.: NCCLS; 2000. The assays can be also be performed in microtiter trays according to conventional methodologies as published by the CLSI. See CLSI. Methods for Dilution Antimicrobial Susceptibility Tests for Bacteria That Grow Aerobically; Approved Standard—Seventh Edition. CLSI Document M7-A7 [ISBN 1-56238-587-9] CLSI, 940 West Valley Road, Suite 1400, Wayne Pa. 19087-1898 USA, 2006).
The compounds of the present invention were tested for antimicrobial activity. The compounds were run against Escherichia coli strain ATCC25922 using a standard microdilution assay to determine minimum inhibitory concentrations (MICs). […] A “N/A” means that data is unavailable. It will be recognized by one skilled in the art that the compounds can be assessed against other bacterial organisms and that the presentation of data for activity against Escherichia coli is illustrative and in no way is intended to limit the scope of the present invention. The compounds of the present invention can be assayed against a range of other microorganisms depending upon the performance activity desired to be gathered. Furthermore, the “+”, “−”, and “N/A” representation and the selection of a cutoff value of 16 micrograms/ml is also illustrative and in no way is intended to limit the scope of the present invention.

Compound	MIC [µg/mL]
NCCCNCc1ccc(-c2cn3cc(-c4ccc(C(=O)NC5CCNCC5)cc4)[nH]c3nc2=O)cc1 [Compound 648]	< 16
NCCCNCc1ccc(-c2cn3cc(-c4ccc(C5=CCNCC5)cc4)[nH]c3nc2=O)cc1 [Compound 649]	< 16
N=C(N)NCCCNCc1ccc(-c2cn3cc(-c4ccc(C5=CCN(C(=N)N)CC5)cc4)[nH]c3nc2=O)cc1 [Compound 650]	< 16
N=C(N)NCCCNCc1ccc(-c2cn3cc(-c4ccc(C(=O)N5CCC(O)C5)cc4)[nH]c3nc2=O)cc1 (stereo not drawn) [Compound 653]	> 16
N=C(N)NCCCNCc1ccc(-c2cn3cc(-c4ccc(C(=O)N5CCOCC5)cc4)[nH]c3nc2=O)cc1 [Compound 654]	> 16
N=C(N)NCCCNCc1ccc(-n2cc3cc(-c4cccc(N5CCNCC5)c4)[nH]c3nc2=O)cc1 [Compound 655]	< 16
N=C(N)NCCCNCc1ccc(-c2cn3nc(C4CC4)[nH]c3nc2=O)cc1 [Compound 661]	> 16
NCCCNCc1ccc(-c2cn3nc(-c4ccc(F)cc4)[nH]c3nc2=O)cc1 [Compound 662]	> 16
N=C(N)NCCCNCc1ccc(-c2cn3nc(-c4ccc(F)cc4)[nH]c3nc2=O)cc1 [Compound 663]	> 16
CN(C)C1CCN(c2cccc(-c3cc4cn(-c5ccc(CNCCCN)cc5)c(=O)nc4[nH]3)c2)CC1 [Compound 665]	< 16
NCCCNCc1ccc(-c2cn3cc(-c4ccc(C(=O)N5CC[C@@H](F)C5)cc4)[nH]c3nc2=O)cc1 [Compound 668]	> 16
N=C(N)NCCCNCc1ccc(-c2cn3cc(-c4ccc(C(=O)N5CCN(c6ccc(F)cc6)CC5)cc4)[nH]c3nc2=O)cc1 [Compound 670]	> 16
N=C(N)NCCCNCc1ccc(-c2cn3cc(-c4ccc(C(=O)N5CC[C@H](F)C5)cc4)[nH]c3nc2=O)cc1 [Compound 673]	> 16
CN1CCN(c2cccc(-c3cc4cn(-c5ccc(CNCCCN)cc5)c(=O)nc4[nH]3)c2)CC1 [Compound 677]	< 16
CN1CCN(c2cccc(-c3cc4cn(-c5ccc(CNCCCNC(=N)N)cc5)c(=O)nc4[nH]3)c2)CC1 [Compound 678]	< 16
Cc1cc(CNc2cn3cc(-c4ccc(CNCCCN)cc4)c(=O)nc3[nH]2)no1 [Compound 679]	> 16
NCCCNCc1ccc(-c2cn3cc(-c4ccc(C(=O)N5CCNCC5)cc4)[nH]c3nc2=O)cc1 [Compound 682, 6-{4-[(3-Amino-propylamino)-methyl]-phenyl}-2-[4-(piperazine-1-carbonyl)-phenyl]-1H-imidazo[1,2-a]pyrimidin-7-one]	< 16
N=C(N)NCCCNCc1ccc(-c2cn3cc(-c4ccc(C(=O)N5CCNCC5)cc4)[nH]c3nc2=O)cc1 [Compound 683]	< 16
N=C(N)NCCCNCc1ccc(-c2cn3cc(-c4ccc(C(=O)N5CCN(CCN6CCOCC6)CC5)cc4)[nH]c3nc2=O)cc1 [Compound 684]	> 16
NCCCNCc1ccc(-n2cc3cc(CCNC4CCNCC4)[nH]c3nc2=O)cc1 [Compound 687]	< 16
N=C(N)NCCCNCc1ccc(-n2cc3cc(CCN(C(=O)c4ccccc4)C4CCNCC4)[nH]c3nc2=O)cc1 [Compound 688]	< 16
N=C(N)NCCCNCc1ccc(-c2cn3cc(-c4ccc(C(=O)N5CCC(C(N)=O)C5)cc4)[nH]c3nc2=O)cc1 (stereo not drawn) [Compound 692]	> 16
N=C(N)NCCCNCc1ccc(-c2cn3cc(-c4ccc(C(=O)N5CCNC(=O)C5)cc4)[nH]c3nc2=O)cc1 [Compound 693]	< 16
NCCCNCc1ccc(-n2cc3cc(-c4ccc(S(=O)(=O)N(Cc5ccc(Cl)c(Cl)c5)C5CCNCC5)cc4)[nH]c3nc2=O)cc1 [Compound 697]	< 16
NCCCNCc1ccc(-c2cn3cc(-c4ccc(C(=O)N5CCS(=O)(=O)CC5)cc4)[nH]c3nc2=O)cc1 [Compound 698]	> 16
CN1CCN(C(=O)c2ccc(-c3cn4cc(-c5ccc(CNCCCN)cc5)c(=O)nc4[nH]3)cc2)CC1 [Compound 699]	> 16
N=C(N)NCCCNCc1ccc(-c2cn3cc(-c4ccc(C(=O)N5CCS(=O)(=O)CC5)cc4)[nH]c3nc2=O)cc1 [Compound 700]	> 16

— patent publication US9193731B2, “Antimicrobial compounds and methods of making and using the same” (Melinta Therapeutics, Inc., priority 2009, dated 2015)
